Measured values: patent US20230085307A1, “PYRIDAZINONE COMPOUND AND HERBICIDE” (NISSAN CHEMICAL CORPORATION, priority 2019, published 2023)

Columns and labels:
Chinese sprangletop = test: Test Example 3: herbicidal effect by foliage application, Wagner pot (Table 18, symbol D); format: in vivo, chinese sprangletop (Leptochloa chinensis); details: amount of applied herbicide 320 g/ha
Procedure, shortened: (§1)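 Plants were sown in alluvial soil held under 0.1–0.5 cm standing water and grown 14 days in a greenhouse at 25–30 °C. An emulsifiable formulation, water-diluted to the set dose, was then sprayed onto the foliage, and effects were scored three weeks later using previously defined criteria.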

Japanese bulrush = test: Test Example 1: herbicidal activity, application before weed generation under submerged conditions (Table 16, symbol B); format: in vivo, Japanese bulrush (Schoenoplectus juncoides); details: 320 g/ha applied herbicide
Procedure, shortened: (§2)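 Alluvial soil was flooded to 4 cm depth, weed seeds were sown mixed and 2.5-leaf rice seedlings were transplanted. On sowing day, the compound's emulsion, diluted in water to a set dose, was applied to the water surface. Plants grew at 25–30 °C and were scored 0–5 after three weeks.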

windgrass = test: Test Example 4: herbicidal effect by soil treatment (Table 19, symbol L); format: in vivo, windgrass (Apera spica-venti); details: amount of applied herbicide 320 g/ha
Procedure, shortened: (§3)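 Step 1: sow seeds in sterilized diluvial soil, cover ~1.5 cm. Step 2: spray diluted emulsion onto soil surface at predetermined rate. Step 3: greenhouse, 25–30° C, three weeks. Step 4: grade effect on each plant by earlier criteria.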

chickweed = test: Test Example 4: herbicidal effect by soil treatment (Table 19, symbol P); format: in vivo, common chickweed (Stellaria media); details: amount of applied herbicide 320 g/ha
Procedure, shortened: as §3

velvetleaf = test: Test Example 5: herbicidal effect by foliage application, plastic box (Table 20, symbol M); format: in vivo, velvetleaf (Abutilon theophrasti); details: foliage application, evaluated three weeks after application; for herbicidal effect on M: velvetleaf (criteria 0-5): 320 g/ha
Procedure, shortened: (§4)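 Foliar spray test: emulsion formulation diluted in water to a set application rate, sprayed onto 14-day-old plants raised in diluvial soil at 25° C to 30° C under glass. Both herbicidal effect and crop effect rated visually three weeks later.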

lambsquarters = test: Test Example 4: herbicidal effect by soil treatment (Table 19, symbol O); format: in vivo, lambsquarters (Chenopodium album); details: amount of applied herbicide 320 g/ha
Procedure, shortened: as §3

southern crabgrass = test: Test Example 4: herbicidal effect by soil treatment (Table 19, symbol F); format: in vivo, southern crabgrass (Digitaria ciliaris); details: amount of applied herbicide 320 g/ha
Procedure, shortened: as §3

late watergrass [1] = test: Test Example 2: herbicidal activity, application during weed generation under submerged conditions (Table 17, symbol A); format: in vivo, late watergrass (Echinochloa oryzicola); details: AAH 320 g/ha; application during weed generation, submerged conditions
Procedure, shortened: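 Effect on each weed is rated three weeks post-treatment, using the same scoring criteria as the preceding test. Plants grow from mixed-sown seed in flooded alluvial soil (4 cm water) at 25° C. to 30° C., and are treated at one to two leaves with diluted emulsion dropped onto the water.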

rice flat sedge = test: Test Example 3: herbicidal effect by foliage application, Wagner pot (Table 18, symbol E); format: in vivo, rice flat sedge (Cyperus iria); details: amount of applied herbicide 320 g/ha
Procedure, shortened: as §1

green foxtail = test: Test Example 5: herbicidal effect by foliage application, plastic box (Table 20, symbol G); format: in vivo, green foxtail (Setaria viridis); details: foliage application, evaluated three weeks after application; for herbicidal effect on G: green foxtail (criteria 0-5): 320 g/ha
Procedure, shortened: as §4

wild oat [2] = test: Test Example 5: herbicidal effect by foliage application, plastic box (Table 20, symbol I); format: in vivo, wild oat (Avena fatua); details: foliage application, evaluated three weeks after application; for herbicidal effect on I: wild oat (criteria 0-5): 320 g/ha
Procedure, shortened: as §4

barnyard grass = test: Test Example 5: herbicidal effect by foliage application, plastic box (Table 20, symbol H); format: in vivo, barnyard grass (Echinochloa crus-galli); details: foliage application, evaluated three weeks after application; for herbicidal effect on H: barnyard grass (criteria 0-5): 320 g/ha
Procedure, shortened: as §4

blackgrass = test: Test Example 5: herbicidal effect by foliage application, plastic box (Table 20, symbol J); format: in vivo, blackgrass (Alopecurus myosuroides); details: foliage application, evaluated three weeks after application; for herbicidal effect on J: blackgrass (criteria 0-5): 320 g/ha
Procedure, shortened: as §4

Italian ryegrass [3] = test: Test Example 5: herbicidal effect by foliage application, plastic box (Table 20, symbol K); format: in vivo, Italian ryegrass (Lolium multiflorum); details: foliage application, evaluated three weeks after application; for herbicidal effect on K: Italian ryegrass (criteria 0-5): 320 g/ha
Procedure, shortened: as §4

late watergrass [4] = test: Test Example 1: herbicidal activity, application before weed generation under submerged conditions (Table 16, symbol A); format: in vivo, late watergrass (Echinochloa oryzicola); details: 320 g/ha applied herbicide
Procedure, shortened: as §2

wild oat [5] = test: Test Example 4: herbicidal effect by soil treatment (Table 19, symbol I); format: in vivo, wild oat (Avena fatua); details: amount of applied herbicide 320 g/ha
Procedure, shortened: as §3

Italian ryegrass [6] = test: Test Example 4: herbicidal effect by soil treatment (Table 19, symbol K); format: in vivo, Italian ryegrass (Lolium multiflorum); details: amount of applied herbicide 320 g/ha
Procedure, shortened: as §3

Compound	herbicidal effect on D: Chinese sprangletop (Chinese sprangletop)	Herbicidal effect on B: Japanese bulrush (grade 0-5) (Japanese bulrush)	herbicidal effect on L: windgrass (windgrass)	herbicidal effect on P: chickweed (chickweed)	herbicidal effect on M: velvetleaf (criteria 0-5) (velvetleaf)	herbicidal effect on O: lambsquarters (lambsquarters)	herbicidal effect on F: southern crabgrass (southern crabgrass)	herbicidal effect rating, A: late watergrass (late watergrass [1])	herbicidal effect on E: rice flat sedge (rice flat sedge)	herbicidal effect on G: green foxtail (criteria 0-5) (green foxtail)	herbicidal effect on I: wild oat (criteria 0-5) (wild oat [2])	herbicidal effect on H: barnyard grass (criteria 0-5) (barnyard grass)	herbicidal effect on J: blackgrass (criteria 0-5) (blackgrass)	herbicidal effect on K: Italian ryegrass (criteria 0-5) (Italian ryegrass [3])	Herbicidal effect on A: late watergrass (grade 0-5) (late watergrass [4])	herbicidal effect on I: wild oat (wild oat [5])	herbicidal effect on K: Italian ryegrass (Italian ryegrass [6])	other results
CCCC(=O)Oc1c(C)nn(C)c(=O)c1-c1c(-c2ccc(C(F)F)cc2)sc2ccc(F)cc12 [2-228]	4 (Herbicidal rate of 70% or more and less than 90%)	4 (Herbicidal rate of 70% or more and less than 90%)	0 (Herbicidal rate of 5% or less (almost no effect))	4 (Herbicidal rate of 70% or more and less than 90%)	5 (Herbicidal rate of 90% or more (almost completely withered))	4 (Herbicidal rate of 70% or more and less than 90%)	2 (Herbicidal rate of 20% or more and less than 40%)	3 (Herbicidal rate of 40% or more and less than 70%)	5 (Herbicidal rate of 90% or more (almost completely withered))	5 (Herbicidal rate of 90% or more (almost completely withered))	0 (Herbicidal rate of 5% or less (almost no effect))	5 (Herbicidal rate of 90% or more (almost completely withered))	3 (Herbicidal rate of 40% or more and less than 70%)	3 (Herbicidal rate of 40% or more and less than 70%)	5 (Herbicidal rate of 90% or more (almost completely withered))	0 (Herbicidal rate of 5% or less (almost no effect))	0 (Herbicidal rate of 5% or less (almost no effect))	–
CCSc1ccc(-c2sc3ccc(F)cc3c2-c2c(O)c(C)nn(C)c2=O)cc1 [2-244]	5 (Herbicidal rate of 90% or more (almost completely withered))	0 (Herbicidal rate of 5% or less (almost no effect))	3 (Herbicidal rate of 40% or more and less than 70%)	1 (Herbicidal rate of 5% or more and less than 20%)	5 (Herbicidal rate of 90% or more (almost completely withered))	4 (Herbicidal rate of 70% or more and less than 90%)	5 (Herbicidal rate of 90% or more (almost completely withered))	5 (Herbicidal rate of 90% or more (almost completely withered))	5 (Herbicidal rate of 90% or more (almost completely withered))	5 (Herbicidal rate of 90% or more (almost completely withered))	5 (Herbicidal rate of 90% or more (almost completely withered))	5 (Herbicidal rate of 90% or more (almost completely withered))	5 (Herbicidal rate of 90% or more (almost completely withered))	5 (Herbicidal rate of 90% or more (almost completely withered))	3 (Herbicidal rate of 40% or more and less than 70%)	0 (Herbicidal rate of 5% or less (almost no effect))	4 (Herbicidal rate of 70% or more and less than 90%)	–
CCCC(=O)Oc1c(C)nn(C)c(=O)c1-c1c(-c2ccc(SCC)cc2)sc2ccc(F)cc12 [2-245]	4 (Herbicidal rate of 70% or more and less than 90%)	3 (Herbicidal rate of 40% or more and less than 70%)	3 (Herbicidal rate of 40% or more and less than 70%)	4 (Herbicidal rate of 70% or more and less than 90%)	5 (Herbicidal rate of 90% or more (almost completely withered))	4 (Herbicidal rate of 70% or more and less than 90%)	4 (Herbicidal rate of 70% or more and less than 90%)	5 (Herbicidal rate of 90% or more (almost completely withered))	4 (Herbicidal rate of 70% or more and less than 90%)	5 (Herbicidal rate of 90% or more (almost completely withered))	5 (Herbicidal rate of 90% or more (almost completely withered))	5 (Herbicidal rate of 90% or more (almost completely withered))	4 (Herbicidal rate of 70% or more and less than 90%)	5 (Herbicidal rate of 90% or more (almost completely withered))	4 (Herbicidal rate of 70% or more and less than 90%)	2 (Herbicidal rate of 20% or more and less than 40%)	4 (Herbicidal rate of 70% or more and less than 90%)	–
Cc1nn(C)c(=O)c(-c2c(-c3ccc(SC4CC4)cc3)sc3ccc(F)cc23)c1O [2-254]	5 (Herbicidal rate of 90% or more (almost completely withered))	3 (Herbicidal rate of 40% or more and less than 70%)	3 (Herbicidal rate of 40% or more and less than 70%)	4 (Herbicidal rate of 70% or more and less than 90%)	–	4 (Herbicidal rate of 70% or more and less than 90%)	5 (Herbicidal rate of 90% or more (almost completely withered))	4 (Herbicidal rate of 70% or more and less than 90%)	5 (Herbicidal rate of 90% or more (almost completely withered))	–	–	–	–	–	5 (Herbicidal rate of 90% or more (almost completely withered))	1 (Herbicidal rate of 5% or more and less than 20%)	5 (Herbicidal rate of 90% or more (almost completely withered))	M: velvetleaf, herbicidal effect (criteria 0-5) (velvetleaf; AAH 320 g/ha): 5 (Herbicidal rate of 90% or more (almost completely withered)); G: green foxtail, herbicidal effect (criteria 0-5) (green foxtail; AAH 320 g/ha): 5 (Herbicidal rate of 90% or more (almost completely withered)); I: wild oat, herbicidal effect (criteria 0-5) (wild oat [2]; AAH 320 g/ha): 5 (Herbicidal rate of 90% or more (almost completely withered)); H: barnyard grass, herbicidal effect (criteria 0-5) (barnyard grass; AAH 320 g/ha): 5 (Herbicidal rate of 90% or more (almost completely withered)); J: blackgrass, herbicidal effect (criteria 0-5) (blackgrass; AAH 320 g/ha): 5 (Herbicidal rate of 90% or more (almost completely withered)); K: Italian ryegrass, herbicidal effect (criteria 0-5) (Italian ryegrass [3]; AAH 320 g/ha): 5 (Herbicidal rate of 90% or more (almost completely withered))
